Data as given in ChEMBL document CHEMBL1201862, “PubChem BioAssay data set” (2004).
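Growth conditions: 96-well plates. Treatment: test compound, 48 hours, 5 concentrations. Analysis: linear interpolation between bracketing concentrations; unreached endpoints set to highest concentration. At the GI50, growth is halved.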 The source made the active and inactive calls. No stated cut-off is given here; in the data, active = GI50 up to about 1.1 µM and inactive = higher.

What was measured:
Test in all cases: DTP human tumour cell line panel, 48 h
[1] = system: XF498
[2] = system: SF-539
[3] = system: RXF 393
[4] = system: NCI-H23
[5] = system: UO-31
[6] = system: HL-60
[7] = system: OVCAR-3
[8] = system: ACHN
[9] = system: HCC 2998
[10] = system: SW-620
[11] = system: DLD-1
[12] = system: HOP-62
[13] = system: EKVX
[14] = system: DMS-114
[15] = system: HCT-116
[16] = system: NCI-H460
[17] = system: UACC-257
[18] = system: SK-MEL-5
[19] = system: HOP-18
[20] = system: SR
[21] = system: 786-0
[22] = system: MOLT-4
[23] = system: UACC-62
[24] = system: IGROV-1
[25] = system: SNB-19
[26] = system: K562
[27] = system: M14
[28] = system: NCI-H226
[29] = system: SF-268
[30] = system: KM-20L2
[31] = system: HOP-92
[32] = system: RPMI-8226
[33] = system: OVCAR-5
[34] = system: SN12C
[35] = system: HT-29
[36] = system: U-251
[37] = system: DMS-273
[38] = system: SK-MEL-28
[39] = system: TK-10
[40] = system: NCI-H522
[41] = system: OVCAR-8
[42] = system: LXFL 529
[43] = system: SNB-78
[44] = system: SK-MEL-2
[45] = system: SK-OV-3
[46] = system: SF-295
[47] = system: COLO 205
[48] = system: KM12
[49] = system: SNB-75
[50] = system: LOX IMVI
[51] = system: HCT-15
[52] = system: Malme-3M
[53] = system: CCRF-CEM
[54] = system: RXF 631

## COC1C2c3ccccc3C(C#N)(Cc3ccc4c(c32)OCO4)N1C(=O)c1ccccc1 (centres undefined)
[1]
  GI50: 21.3 µM (inactive)
[2]
  GI50: > 100 µM (inactive)
[3]
  GI50: 16.3 µM (inactive)
[4]
  GI50: 62.2 µM (inactive)
[5]
  GI50: 31.7 µM (inactive)
[6]
  GI50: 8.57 µM (inactive)
[7]
  GI50: 42.5 µM (inactive)
[8]
  GI50: 41.4 µM (inactive)
[9]
  GI50: 37.9 µM (inactive)
[10]
  GI50: 32.8 µM (inactive)
[11]
  GI50: 60.3 µM (inactive)
[12]
  GI50: 14.4 µM (inactive)
[13]
  GI50: 45.8 µM (inactive)
[14]
  GI50: 19.6 µM (inactive)
[15]
  GI50: 37.6 µM (inactive)
[16]
  GI50: 25.9 µM (inactive)
[17]
  GI50: 26.1 µM (inactive)
[18]
  GI50: 3.76 µM (inactive)
[19]
  GI50: 80.7 µM (inactive)
[20]
  GI50: 14.3 µM (inactive)
[21]
  GI50: 98.6 µM (inactive)
[22]
  GI50: 30.1 µM (inactive)
[23]
  GI50: 3.37 µM (inactive)
[24]
  GI50: 13 µM (inactive)
[25]
  GI50: 46.6 µM (inactive)
[26]
  GI50: 5.11 µM (inactive)
[27]
  GI50: 26.6 µM (inactive)
[28]
  GI50: 12.5 µM (inactive)
[29]
  GI50: > 100 µM (inactive)
[30]
  GI50: 43.1 µM (inactive)
[31]
  GI50: > 100 µM (inactive)
[32]
  GI50: 16.3 µM (inactive)
[33]
  GI50: > 100 µM (inactive)
[34]
  GI50: > 100 µM (inactive)
[35]
  GI50: 48 µM (inactive)
[36]
  GI50: 37.7 µM (inactive)
[37]
  GI50: 5.65 µM (inactive)
[38]
  GI50: 90.8 µM (inactive)
[39]
  GI50: > 100 µM (inactive)
[40]
  GI50: 10.5 µM (inactive)
[41]
  GI50: 84.9 µM (inactive)
[42]
  GI50: 46 µM (inactive)
[43]
  GI50: 47.8 µM (inactive)
[44]
  GI50: 46.8 µM (inactive)
[45]
  GI50: 35.3 µM (inactive)
[46]
  GI50: > 100 µM (inactive)
[47]
  GI50: 16.7 µM (inactive)
[48]
  GI50: 24.9 µM (inactive)
[49]
  GI50: 50.6 µM (inactive)
[50]
  GI50: > 100 µM (inactive)
[51]
  GI50: 17.1 µM
[52]
  GI50: 37.8 µM (inactive)
[53]
  GI50: 25.4 µM (inactive)
[54]
  GI50: > 100 µM (inactive)
